Experimental data taken from patent US20090247492A1, “MANGANESE BASED ORGANOMETALLIC COMPLEXES, PHARMACEUTICAL COMPOSITIONS AND DIETETIC PRODUCTS” (MEDESIS PHARMA S.A.,, priority 2003, published 2009).
Several values for one entry are separate records, joined by “and”; a condition that tells them apart may be missing. Equal entries are not always repeated.

How the values were obtained:
[1] = test system: edema produced by injection of adriamycin under the arch of the hind paw of the rat; assay: adriamycin test: paw edema in the Wistar rat (anti-free radical activity); assay type: in vivo; set-up: Paw volume, group mean: unit not given beside the values; settings: for Paw volume, individual animals / Paw volume, group mean / Percentage paw edema, individual animals / Percentage paw edema, group mean: 100 mg/kg IP daily; for Paw volume, group mean / Percentage paw edema, group mean: 10 rats; for Percentage of edema inhibition (protection): vs olive oil control, Diosmine 100 mg/kg IP, Example 4 1 ml/kg IP
Description: The adriamycin test is a specific test used to show evidence of the anti-free radical activity of a test substance. This test is described in G. Jadot, Cedema from adriamycin in the Wistar rat. SuperOxide Dismutases, p 73-77, Masson Ed., Paris, 1988.
One hour following injection of Adriamycin, a temporary inflammatory response lasting 12 hours can be observed. This first phase corresponds to the release of histamine, serotonine and the accumulation of polynuclear neutrophiles. A second inflammatory phase commences on the third day following administration and continues for 5 days. During this inflammatory phase, vascular hyperpermeability […] endothelial cell membrane alteration produced by free radical oxidative damage. Steroidal and non-steroidal anti-inflammatory drugs are not effective during this second inflammatory phase.
Research into an anti-free radical activity in the rat by intra-peritoneal administration consists of measuring the reduction in edema produced by injection of adriamycin under the arch of the hind paw of the rat.
Male Wistar rats were used for these tests, after a quarantine period of 15 days.
(Edema was induced by subcutaneous injection of a 0.2 ml solution of adriamycin (2.5 mg/ml) in the arch of the right hind paw of the rat (Siegel's method modified by Jadot (1988)).
The compounds tested were administered 2 hours before the first measurements on the first day, and 1 hour before the measurements on the following days, until the 8th day.
The measurement of edema volume was determined by plethysmography and was performed immediately before injection of adriamycin on the first day (base measurement), and then every day at the same time.
The treatment was maintained for the entire duration of the study. The control group received the dosing vehicle only.
Following the establishment of groups of 10 animals, daily intra-peritoneal administration was carried out according to the following scheme:
Negative control: animals administered olive oil (1 ml/kg).
Positive control: animals administered 100 mg/kg de diosmine (1 ml/kg).
Example 4: animals administered example 4 (1 mil/kg)
Paw edema, expressed as a percentage, is calculated for each animal at each time point:
The percentage reduction in paw oedema at each time point and for each group of animals are calculated as follows: […]
Anti-free radical activity is shown by a significant reduction in paw volume in the treated group compared to the control group.

[2] = activity of the sterol constituent (test not specified); settings: pure sterol in place of sitosterol
[3] = test system: edema produced by injection of adriamycin under the arch of the hind paw of the rat; settings: cf JL Jadot; cited from earlier work
[4] = iv-injected, rat; cited from earlier work

Molecule: COc1ccc(-c2cc(=O)c3c(O)cc(O[C@@H]4O[C@H](CO[C@@H]5O[C@@H](C)[C@H](O)[C@@H](O)[C@H]5O)[C@@H](O)[C@H](O)[C@H]4O)cc3o2)cc1O [Diosmine]
- Paw volume, individual animals ([1]; D1 (base), before adriamycin, 100 mg/kg): 116 and 108 and 102 (2×) and 105 and 120 and 113 and 107 and 103 and 91
- Paw volume, group mean ([1]; D1 (base), before adriamycin): 106.70
- Paw volume in comparison to the negative control ([1]; D2-D7, highest significance for Example 4 at D3 and D4 (p<0.001), disappears at D8): statistically significant difference
- Paw volume, individual animals ([1]; D2): 129 and 152 and 112 (2×) and 107 and 128 and 135 and 118 and 110 and 105
- Percentage paw edema, individual animals ([1]; D2): 11.21% and 40.74% and 9.80% (2×) and 1.90% and 6.67% and 19.47% and 10.28% and 6.80% and 15.38%
- Paw volume, group mean ([1]; D2): 120.80
- Percentage paw edema, group mean ([1]; D2): 13.21%
- Percentage of paw edema, change versus control ([1]; D2 to D5, most significant at D3 for Example 4 (p<0.001)): significant decrease
- Paw volume, individual animals ([1]; D3): 162 and 181 and 142 and 126 and 158 and 160 (2×) and 138 and 134 and 161
- Percentage paw edema, individual animals ([1]; D3): 39.66% and 67.59% and 39.22% and 20.00% and 31.67% and 41.59% and 49.53% and 35.29% and 30.10% and 76.92%
- Paw volume, group mean ([1]; D3): 152.20
- Percentage paw edema, group mean ([1]; D3): 43.16%
- Percentage of edema inhibition (protection) ([1]; D3): 44.15%
- Paw volume, individual animals ([1]; D4): 152 (2×) and 121 and 180 and 143 and 172 and 158 and 142 and 223 and 187
- Percentage paw edema, individual animals ([1]; D4): 31.03% and 12.04% and 76.47% and 36.19% and 43.33% and 39.82% and 32.71% and 118.63% and 81.55% and 67.03%
- Paw volume, group mean ([1]; D4): 163.00
- Percentage paw edema, group mean ([1]; D4): 53.88%
- Percentage of edema inhibition (protection) ([1]; D4): 36.98%
- Paw volume, individual animals ([1]; D5): 195 and 200 and 152 and 172 and 188 and 175 and 186 and 165 and 173 and 170
- Percentage paw edema, individual animals ([1]; D5): 68.10% and 85.19% and 49.02% and 63.81% and 56.67% and 54.87% and 73.83% and 61.76% and 67.96% and 86.81%
- Paw volume, group mean ([1]; D5): 177.6
- Percentage paw edema, group mean ([1]; D5): 66.80%
- Percentage of edema inhibition (protection) ([1]; D5): 21.77%
- Paw volume, individual animals ([1]; D6): 193 and 194 and 153 and 179 and 177 and 172 and 199 and 167 and 183 and 158
- Percentage paw edema, individual animals ([1]; D6): 66.38% and 79.63% and 50.00% and 70.48% and 47.50% and 52.21% and 85.98% and 63.73% and 77.67% and 73.63%
- Paw volume, group mean ([1]; D6): 177.50
- Percentage paw edema, group mean ([1]; D6): 66.72%
- Percentage of edema inhibition (protection) ([1]; D6): 12.03%
- Paw volume, individual animals ([1]; D7): 195 and 176 and 148 and 174 and 164 (2×) and 166 and 172 and 173 and 150
- Percentage paw edema, individual animals ([1]; D7): 68.10% and 62.96% and 45.10% and 65.71% and 36.67% and 46.90% and 60.75% and 60.78% and 67.96% and 64.84%
- Paw volume, group mean ([1]; D7): 168.20
- Percentage paw edema, group mean ([1]; D7): 57.98%
- Percentage of edema inhibition (protection) ([1]; D7): 14.05%
- Paw volume, individual animals ([1]; D8): 180 and 173 and 145 and 156 and 165 and 164 (2×) and 175 and 159 and 154
- Percentage paw edema, individual animals ([1]; D8): 55.17% and 60.19% and 42.16% and 48.57% and 37.50% and 45.13% and 63.55% and 60.78% and 54.37% and 69.23%
- Paw volume, group mean ([1]; D8): 163.50
- Percentage paw edema, group mean ([1]; D8): 53.67%
- Percentage of edema inhibition (protection) ([1]; D8): 0%
- Free radical protection activity (conclusion) ([1]; edema progression compared to the control group): confirmed its activity

Molecule: CC(C)[C@H](C)CC[C@@H](C)[C@H]1CC[C@H]2[C@@H]3CC=C4C[C@@H](O)CC[C@]4(C)[C@H]3CC[C@]12C [campesterol]
- activity of pure sterol [2]: no activity

Molecule: CC[C@H](CC[C@@H](C)[C@H]1CC[C@H]2[C@@H]3CC[C@H]4C[C@@H](O)CC[C@]4(C)[C@H]3CC[C@]12C)C(C)C [sitostanol]
- activity of pure sterol [2]: no activity

Molecule: bovine SOD: bovine superoxide dismutase enzyme
- Protection against edema from free radical damage [3]: possesses the same characteristics as Diosmine
- circulation half life [4]: 7 min
